Measured values reported in US9939451B2, “Biomarker for detecting white matter stroke, containing toll-like receptor 2, and medical use of toll-like receptor 2” (AJOU UNIVERSITY INDUSTRY—ACADEMIC COOPERATION FOUNDATION, priority 2013, dated 2018).

Legend:
[1] = tested on: primary OL (oligodendrocyte) cultures exposed to oxygen-glucose deprivation; assay: TUNEL staining of OGD-induced OL death; assay type: cell-based, mouse; settings: Pam3CSK4 1 μg/ml added after 2 hours OGD; FIG. 5
Description: (§1) Primary OL cultures were prepared from cortices of newborn C57BL/6 on postnatal day 0 (P0) to postnatal day 1 (P1), and/or TLR2 (−/−) mouse, according to the method reported in Journal of Visualized Experiment by O'Meara R. After 9-10 days in vitro, confluent mixed glial cultures were obtained. The mixed glial cultures were shaken at a temperature of about 37° C. for about 1 hour at a speed of about 200 rpm, so as to remove microglia. Afterwards, a second cycle of shaking was then performed at a temperature of about 37° C. for about 18 hours at a speed of about 250 rpm, so as to remove OLs from astrocyte monolayer. The cell suspensions obtained therefrom was plated on a bacterial grade Petri dish for about 1 hour to separate OLs from remaining microglia and astrocytes. Purified OLs were plated on a poly-D-lysine coated 12 well (1.5×10^5 cells/well) or 96 well (1.5×10^4 cells/well) or on a 9 mm coverslip (1.0×10^4 cells/coverslip).
For OGD challenge, the purified OLs were cultured for about 1 day in a serum-free differentiation medium, washed with PBS three times, and then, transferred to an anaerobic chamber (Forma Scientific, Marietta, Ohio). […] The cells were exposed to OGD for about 2 hours, and then, transferred to a normoxic chamber. […]

[2] = tested on: primary OL (oligodendrocyte) cultures exposed to oxygen-glucose deprivation; assay: LDH assay of OGD-induced OL death; assay type: cell-based, mouse
Description: as §1, with “Purified OLs were plated on a poly-D-lysine coated 12 well (1.5×10^5 cells/well) or 96 well (1.5×10^4 cells/well) or on a 9 mm coverslip (1.0×10^4 cells/coverslip).” left out
For quantification of OGD-induced OL death, LDH assay was performed using an assay kit (Takara Bio, Inc., Madison, Wis.) to measure LDH generated in a bathing medium in association with damaged OL at 24 hours after the onset of OGD challenge. The LDH level corresponding to typical cell death was determined in sister cultures exposed 1.5% Triton X-100 for 24 hours (complete cell death, CD). Baseline (BL) LDH levels were determined in a condition of only medium without OLs. Percentage of cell death in each experimental condition was calculated using a following formula. {% of OL death=(experimental value−BL)×100/(CD−BL)}

Pam3CSK4
OGD-induced OL death (TUNEL staining) [1]: reduced the extent of OGD-induced OL death | OGD-induced OL death (LDH release) ([2]; Pam3CSK4 1 μg/ml added after 2 hours OGD, LDH measured 24 hours after onset of OGD, FIG. 3): reduced the extent of OGD-induced OL death | OGD-induced OL death (summary statement) ([2]; TLR2 agonist applied after OGD to OLs cultured from WT mouse, readout not given): substantially reduced OGD-induced OL death
